From ChEMBL document CHEMBL2429744, “Anticancer activities of an antimicrobial peptide derivative of Ixosin-B amide” (Bioorg Med Chem Lett, 2013)
Active and inactive are the calls of the source. The calls are words filed in the database; no cut-off is given here. Peptide text beside a SMILES is read from it.

Experiments:
MCF7 [1] = assay: Antimigratory activity against human MCF7 cells assessed as inhibition of wound-healing activity at 5 uM after 48 hrs by phase contrast microscopic analysis relative to untreated control; format: functional
MCF7 [2] = assay: Antiproliferative activity against human MCF7 cells assessed as cell viability at 100 uM after 48 hrs by MTT assay; format: functional, cell-based
MCF7 [3] = assay: Induction of alpha-tubulin mislocalization in human MCF7 cells assessed as appearance of aggregated protein around nucleus at 5 uM after 24 to 48 hrs by confocal microscopic analysis relative to untreated control; format: functional, cell-based
MCF7 [4] = assay: Inhibition of F-actin structural changes in human MCF7 cells at 25 uM after 24 to 48 hrs using AlexaFluor 488 and TRITC staining by confocal microscopic analysis; format: functional, cell-based
MCF7 [5] = assay: Ratio of cytotoxic activity to antimigratory activity against human MCF7 cells; format: functional
MCF7 [6] = assay: Antimigratory activity against human MCF7 cells assessed as inhibition of wound-healing activity at 1 uM after 24 hrs by phase contrast microscopic analysis relative to untreated control; format: functional, cell-based
MCF7 [7] = assay: Induction of morphological changes in human MCF7 cells at 1 uM after 24 to 48 hrs by confocal microscopic analysis relative to untreated control; format: functional, cell-based
MCF7 [8] = assay: Induction of cell death in human MCF7 cells at 25 uM after 24 hrs; format: cell-based; details: mcf7, 24 h
MCF7 [9] = assay: Antiproliferative activity against human MCF7 cells assessed as cell viability after 48 hrs by MTT assay; format: functional, cell-based; details: MCF7, 48 h
MCF7 [10] = assay: Induction of morphological changes in human MCF7 cells assessed as cell shrinkage at 5 uM after 24 to 48 hrs by confocal microscopic analysis relative to untreated control; format: functional, cell-based
MCF7 [11] = assay: Induction of cortical alpha-tubulin structural changes in human MCF7 cells at 25 uM after 24 to 48 hrs using AlexaFluor 488 and TRITC staining by confocal microscopic analysis relative to untreated control; format: functional, cell-based

Row | Compound | inhibition (MCF7 [1]) | Activity (MCF7 [2]) | Activity (MCF7 [3]) | inhibition at 5 µM (MCF7 [1]; MCF7, 48 h) [%] | inhibition (MCF7 [4]) | Ratio (MCF7 [5]) | Activity (MCF7 [6]) | Activity (MCF7 [7]) | Activity (MCF7 [8]) | IC50 (MCF7 [9]) [µM] | Activity (MCF7 [10]) | inhibition (MCF7 [11])
1 | CC(C)C[C@H](NC(=O)[C@H](CCCNC(=N)N)NC(=O)[C@@H](N)CCCCN)C(=O)N[C@@H](CCCNC(=N)N)C(=O)N[C@@H](CCCNC(=N)N)C(=O)N[C@H](C(=O)N[C@@H](Cc1c[nH]c2ccccc12)C(=O)N[C@@H](CCCNC(=N)N)C(=O)N[C@@H](CCCNC(=N)N)C(=O)N[C@@H](Cc1c[nH]c2ccccc12)C(=O)N[C@@H](CCCNC(=N)N)C(N)=O)C(C)C (H-KRLRRVWRRWR-NH2) | inactive | inactive |  |  |  |  |  |  |  |  |  | 
2 | CC(C)C[C@H](NC(=O)[C@H](Cc1c[nH]c2ccccc12)NC(=O)[C@@H](N)CCCCN)C(=O)N[C@@H](CCCNC(=N)N)C(=O)N[C@@H](CCCNC(=N)N)C(=O)N[C@H](C(=O)N[C@@H](Cc1c[nH]c2ccccc12)C(=O)N[C@@H](CCCNC(=N)N)C(=O)N[C@@H](Cc1c[nH]c2ccccc12)C(=O)N[C@@H](Cc1c[nH]c2ccccc12)C(=O)N[C@@H](CCCNC(=N)N)C(N)=O)C(C)C (H-KWLRRVWRWWR-NH2) |  |  | Active | 40 | Active | 10 | inactive | inactive | Toxic | 61.5 | Active | Active
